Experimental data from patent publication US11046690B2, “Pyridazinones and methods of use thereof” (Goldfinch Bio, Inc., priority 2018, dated 2021).

What was measured:
[1] = biological target: T1, TRPC5 (Homo sapiens, UniProt Q9UL62); assay: TRPC5 activity assay (FLIPR calcium fluorescence, Riluzole stimulation); format: cell-based; details: HEK-TREx hTRPC5 cells, 30 μM Riluzole stimulation; read-out: TRPC5 (IC50 class)
T1 construct: expressed in transfected cells
T1 sequence (Q9UL62 1-973): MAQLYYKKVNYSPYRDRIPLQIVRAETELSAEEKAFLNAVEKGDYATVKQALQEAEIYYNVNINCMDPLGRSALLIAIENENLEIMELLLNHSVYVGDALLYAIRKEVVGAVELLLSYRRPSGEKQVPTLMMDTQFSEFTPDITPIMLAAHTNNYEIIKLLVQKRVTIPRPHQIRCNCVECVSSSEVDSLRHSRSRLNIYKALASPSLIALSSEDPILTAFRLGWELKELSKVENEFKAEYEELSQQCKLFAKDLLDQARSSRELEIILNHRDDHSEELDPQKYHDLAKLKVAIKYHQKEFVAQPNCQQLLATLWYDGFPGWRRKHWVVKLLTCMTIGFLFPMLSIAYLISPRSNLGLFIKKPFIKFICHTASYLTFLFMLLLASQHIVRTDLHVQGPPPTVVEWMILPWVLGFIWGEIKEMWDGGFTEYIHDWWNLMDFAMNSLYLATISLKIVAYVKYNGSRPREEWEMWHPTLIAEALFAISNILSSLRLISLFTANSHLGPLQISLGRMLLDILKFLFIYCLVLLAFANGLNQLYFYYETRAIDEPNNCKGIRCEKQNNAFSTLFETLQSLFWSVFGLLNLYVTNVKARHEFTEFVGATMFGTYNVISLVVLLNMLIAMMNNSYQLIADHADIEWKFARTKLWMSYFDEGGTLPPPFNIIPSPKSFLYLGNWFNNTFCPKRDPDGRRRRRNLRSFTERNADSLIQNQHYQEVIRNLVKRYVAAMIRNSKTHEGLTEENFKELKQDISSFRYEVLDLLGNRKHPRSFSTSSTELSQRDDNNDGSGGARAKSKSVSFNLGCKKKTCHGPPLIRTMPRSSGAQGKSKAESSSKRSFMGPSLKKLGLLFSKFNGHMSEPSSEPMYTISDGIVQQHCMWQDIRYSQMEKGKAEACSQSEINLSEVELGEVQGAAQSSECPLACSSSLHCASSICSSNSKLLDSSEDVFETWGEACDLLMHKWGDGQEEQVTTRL
Experimental: ICLN-1633 cells (HEK-TREx hTRPC5) expressing TRPC5 were generated as follows. Commercially available HekTrex-293 cells were seeded at 0.7×10^6 cells/well in a 1×6-well plate 24 hrs prior to transfection using 2 mL cell growth media containing no antibiotics (1× DMEM/high glucose (Hyclone #SH30022.02); 10% fetal bovine serum (Sigma) 2 mM sodium pyruvate, 10 mM HEPES). […] On day 2, 2 μg of plasmid DNA plus 6 μl of Xtreme-GENE HP reagent in Optimem (200 μl total volume) was prepared and incubated for 15 min at room temperature. This plasmid solution was then gently overlayed dropwise onto each well and the plate was gently swirled to mix complex with the media for approximately 30 seconds. Transfected cells were incubated at 37° C. in a 10%/CO2 incubator for 24 hrs. The transfected cells were harvested and transferred into 2×150 mm dishes containing cell growth media with no antibiotics at 37° C.
The next day selection was initiated to generate a stable pool by adding cell growth media containing 150 μg/mL Hygromycin and 5 μg/mL Blasticidin and cells were allowed to grow. Media with the selection agent was changed every 1-2 days as needed to remove dead cells. After 7 days, the hygromycin concentration was reduced to 75 μg/mL and cells growth was allowed to continue.
Single clones were selected as follows. The stable pool was diluted to 10 cells/mL and seeded (100 μl/well) into 24×96 well plates (˜1 cell/well) and allowed to grow for 7 days in cell growth media. Fresh media (100 μl) was added and the cells allowed to grow for another 1-2 weeks and then stored frozen or used immediately.
10-point dose response curves were generated using the Echo-550 acoustic dispenser. Compound source plates were made by serially diluting compound stocks to create 10 mM, 1 mM, and 0.1 mM solutions in DMSO into Echo certified LDV plates. The Echo then serially spotted 100%/DMSO stock solutions into source dose response plates to generate a 4-fold dilution scheme. 100%0/DMSO was added to the spotted dose response plates to bring the final volume to 5 μl. 300 nl of the dose response stock plate was then spotted into pre-incubation and stimulation assay plates. 50 μl of pre-incubation buffer and 100 μl of stimulation buffer was then added to the plates resulting in a final assay test concentration range of 30 μM to 0.0001 μM with a final DMSO concentration of 0.3%.
Human ICLN-1633 cells expressing were plated onto 384 well, black PDL-coated microplates and maintained in TRPC5 growth media the day prior to use for experiments. TRPC5 expression was induced by the application of 1 μg/mL tetracycline at the time of plating. […] Cells are incubated at room temperature, protected from light, for 60-90 minutes. After the incubation period, the dye is removed and replaced with 10 μl of EBSS. Cell, pre-incubation and stimulation plates are loaded onto the FLIPR-II and the assay is initiated. The FLIPR measures a 10 second baseline and then adds 10 μl of 2X compounds (or controls). Changes in fluorescence are monitored for an additional 5 minutes. After the 5 minute pre-incubation, 20 μl of 2X Riluzole (with 1X compound or controls) is added to the cell plate. The final Riluzole stimulation concentration in the assay is 30 μM. After the Riluzole addition, changes in fluorescence are monitored for an additional 5 minutes.
Compound modulation of TRPC5 calcium response was determined as follows. After the Englerin A, fluorescence was monitored for a 5-minute period. The maximum relative fluorescence response (minus the control response of 1 μM of an internal control compound known to maximally block TRPC5 calcium response, the “REF INHIB” in the formula below) was captured and exported from the FLIPR.
Compound effect is calculated as % inhibition using the following formula:
[formula] wherein “RFU” is the relative fluorescent units.

[2] = test system: PAN induced glomerular kidney injury; assay: Puromycin aminonucleoside (PAN)-induced glomerular injury in rats; format: in vivo, Sprague-Dawley rats; details: PAN-injured rats
Description: The objective of this study is to evaluate the dose-dependent effects of compound 100 on PAN induced glomerular kidney injury as indexed by albuminuria. Eighty (80), male Sprague-Dawley rats weighing approximately 125-150 g and approximately 5-6 weeks of age were acquired from Charles River. They were fed a standard chow diet (Harlan 8640), housed under standard conditions, and allowed to acclimate for at least 5 days prior to study inception. On D-2, rats were placed into weight-matched treatment groups and were placed, individually housed, into metabolic cages for the balance of the study. A 24 hour baseline (Day 0) urine was collected followed by a baseline blood collection via conscious tail venous puncture. Rats were then administered vehicle or test article. Two (2) hours following administration of vehicle or test agent on Day 0, rats received an administration of (5 ml/kg, s.c.) vehicle (sterile saline) or puromycin aminonucleoside (PAN; challenge agent; 75 mg/kg) dissolved in vehicle. Intermittent (Day 4, 7 and 10) 24 hour urine volumes were determined and samples (4 samples/animal/time point; 0.5 ml/sample) were obtained. Additionally, intermittent (Day 4, 7 and 10) blood samples were collected via conscious tail venous puncture 2 hours±1 minute post-AM dose. Immediately following the last blood collection, rats were anesthetized with isoflurane, tissues harvested, and animals sacrificed. Endpoint kidney weights and indices were obtained. Urine samples were immediately flash-frozen in liquid N2 and stored at −80° C. until analyzed. Whole blood samples collected on K3EDTA were processed appropriately for the production of plasma for PK measurements.

[3] = test system: AT1R transgenic rat model of FSGS; assay: AT1R transgenic rat model of FSGS; format: in vivo; details: AT1R transgenic rats, UniNX and AngII infusion, orally once daily 3 mg/kg or 10 mg/kg, up to 3 weeks
Experimental: The AT1R transgenic rat model of FSGS is characterized by podocyte-specific expression of human AT1R. […] See Zhou et al., Science (2017), vol. 358 (6368), 1332-1336. In the present study, pathophysiology in AT1R transgenic rats was accelerated with unilateral nephrectomy (UniNX) and minipump AngII infusion. Compound 100 was dosed orally once daily at 3 mg/kg or 10 mg/kg, and the urine protein creatinine ratio was determined at -1, 0, 1, 2, and 3 weeks of treatment. […] UniNX, AngII […], and compound 100 […] occurred at the time points indicated.

Row | Structure (SMILES) | IC50 [1] | other results
1 | CC(c1ccc(F)cc1C(F)(F)F)c1ncnc2c1CCN(c1cn[nH]c(=O)c1Cl)C2 (single isomer, unassigned) [Compound 126, 4-Chloro-5-[4-[(1 S)-1-[4-fluoro-2-(trifluoromethyl)phenyl]ethyl]-5H,6H,7H,8H-pyrido[3,4-d]pyrimidin-7-yl]-2,3-dihydropyridazin-3-one] | < 50 nM | –
2 | CC(c1ccc(F)cc1C(F)(F)F)c1ncnc2c1CCN(c1cn[nH]c(=O)c1Cl)C2 (single isomer, unassigned) [Compound 126a] | 50 to 500 nM | –
3 | O=c1[nH]ncc(N2CCc3c(nc([C@H](O)CO)nc3Oc3ccc(F)cc3C(F)(F)F)C2)c1Cl (single isomer, unassigned) [Compound 137] | < 50 nM | –
4 | O=c1[nH]ncc(N2CCc3c(ncnc3Oc3ccc(F)cc3C(F)(F)F)C2)c1Cl [Compound 100, 4-chloro-5-[4-[4-fluoro-2-(trifluoromethyl)phenoxy]-5H,6H,7H,8H-pyrido[3,4-d]pyrimidin-7-yl]-2,3-dihydropyridazin-3-one] | – | urinary albumin excretion ([2]; 30 mg/kg once daily (QD), at 10 days): Significant reductions; urinary albumin excretion ([2]; 30 mg/kg twice daily (BID), at 7 and 10 days): Significant reductions; urine protein creatinine ratio [3]: efficacious
5 | NC(=O)c1ncn([C@@H]2O[C@H](CO)[C@@H](O)[C@H]2O)c1O [Mizoribine, reference compound] | – | albuminuria ([2]; positive control compound): efficacious in reducing albuminuria

More lines, main results first:

Row | IC50 [1] | Structure (SMILES) | other results
6 | > 1000 nM | CC1Cc2c(ncnc2Oc2ccc(F)cc2Cl)CN1c1cn[nH]c(=O)c1Cl (single isomer, unassigned) [Compound 117a] | –
7 | < 50 nM | CC(O)c1nc2c(c(Oc3ccc(F)cc3C(F)(F)F)n1)CCN(c1cn[nH]c(=O)c1Cl)C2 (single isomer, unassigned) [Compound 129, 4-Chloro-5-[4-[4-fluoro-2-(trifluoromethyl)phenoxy]-2-[(1 S)-1-hydroxyethyl]-5H,6H,7H,8H-pyrido[3,4-d]pyrimidin-7-yl]-2,3-dihydropyridazin-3-one] | –
8 | < 50 nM | CC(O)c1nc2c(c(Oc3ccc(F)cc3C(F)(F)F)n1)CCN(c1cn[nH]c(=O)c1Cl)C2 (single isomer, unassigned) [Compound 130] | –
9 | < 50 nM | O=c1[nH]ncc(N2CCc3c(nc([C@@H](O)CO)nc3Oc3ccc(F)cc3C(F)(F)F)C2)c1Cl (single isomer, unassigned) [Compound 135] | –
